According to patent US8969375B2, “CDK9 kinase inhibitors” (AbbVie Inc., priority 2013, dated 2015):
Marks after values point to notes of the source that are not given here.

Legend:
[1] = molecular target: T1, CDK9/Cyclin T1 (Homo sapiens, UniProt P50750); experiment: CDK9 enzyme activity, LANCE ULight TR-FRET kinase assay; format: biochemical; conditions: 1000 μM ATP, 4 nM CDK9/Cyclin T1, 30 minutes
T1 construct: purchased Carna Biosciences 04-110
Protocol: CDK9 enzyme activities were measured using LANCE ULight TR-FRET kinase assay reagents (PerkinElmer, Waltham, Mass.). Compounds were directly added in 100% DMSO to white low volume assay plates (Perkin Elmer Proxiplate 6008289) using a Labcyte Echo acoustic dispenser. Assay reagents in serine/threonine kinase assay buffer containing 20 mM HEPES, 10 mM MgCl2, 100 mM Na3VO4, and 0.0075% Triton X-100. were added for final reaction mixture concentrations of 1000 μM ATP, 100 nM U-light MBP peptide (Perkin Elmer TRF0109M) and reaction initiated with 4 nM CDK9/Cyclin T1 (Carna Biosciences 04-110). The kinase reaction was carried out for 30 minutes before addition of stopping buffer to a final of 20 mM EDTA and 0.5 nM of LANCE Ultra Europium anti-phospho-MBP antibody (PerkinElmer TRF0201M) in LANCE detection buffer (PerkinElmer CR97-100). The reaction was equilibrated for 1 hour and the signal read in the Perkin Elmer Envision in TR-FRET mode (excitation at 320 nm and emission at 615/665 nm).

[2] = test system: H929 cells; experiment: Cell viability assay (Cell TiterGlo), H929 cells; format: cell-based, human; conditions: Homo sapiens, NCI-H929, 24 hours
Protocol: (§1) Cell viability assays were performed using A431 or H929 cells. A431 cells were seeded in 96-well plates at 10,000 cells/well, and after overnight incubation, treated with compounds at 2-times the final concentration to result in a dose response of 3-fold dilutions from 10 μM to 0.0005 μM (50 μL/well, 0.1% final DMSO concentration). H929 cells were seeded in 96-well plates at 10,000 cells/well and treated immediately with compounds as described above. After 24 hours at 37° C., cell viability was measured using Cell TiterGlo reagent (Promega) with a luminescence reader. Alternately, cell viability assays were performed in 384-well format. A431 cells were seeded in 384-well plates at 2500 cells/well and, after overnight incubation, treated with compounds in a dose response of 3-fold dilutions from 10 μM to 0.0005 μM ([…], 0.1% final DMSO concentration). For the H929 viability assay, […] of the compounds was dispensed into 384-well plates in a dose response as described above and cells were immediately seeded in 384-well plates at 2500 cells/well. After 24 hours at […], cell viability was measured using Cell TiterGlo reagent (Promega) with a luminescence reader.

[3] = test system: A431 cells; experiment: Cell viability assay (Cell TiterGlo), A431 cells; format: cell-based; conditions: Homo sapiens, A-431, 24 hours
Protocol: as §1

[4] = test system: H929 xenograft tumors; experiment: Xenograft tumor growth inhibition assay, H929 human multiple myeloma xenograft; format: in vivo, mice; conditions: IP, TW x 3; for % TGD (tumor growth delay): (T − C)/C × 100, median time to endpoint; for % TGI: female nude or SCID-beige mice, end of treatment period; for % removed from study: removed due to morbidity or weight loss in excess of 20%
Protocol: Xenograft Tumor Growth Inhibition Assay
The effect of Examples 1, 4, and 5 to inhibit the growth of H929 xenograft tumors implanted in mice was evaluated. NCI-H929 cells obtained from culture were suspended in cell culture medium (MEM, no calcium, no glutamine, Life Technologies Corporation) and diluted 1:1 with a solution of Matrigel™ (BD Biosciences, Franklin Lakes, N.J.). Tumor cells 5 million per site were inoculated subcutaneously into the right hind flank of female nude or SCID-beige mice (Charles River Labs).
Randomization into treatment and vehicle control groups (9-10/group) occurred when the mean tumor volume reached approximately 200 mm^3 Compounds were formulated in 2% DMSO, 5% Tween80, 20% PEG400, 73% HPMC. Administration of compound or vehicle was initiated on the day following randomization and continued for the indicated time. Tumors were measured twice a week throughout the treatment period using a pair of calipers and tumor volumes were calculated according to the formula V=L×W^2/2 (V: volume, mm^3; L: length, mm. W: width, […]). Tumor growth inhibition was calculated based on the mean tumor volume measured at the end of the treatment period according to the formula % TGI=100−mean tumor volume of treatment group/mean tumor volume of control group×100.

T1 sequence (P50750 whole entry): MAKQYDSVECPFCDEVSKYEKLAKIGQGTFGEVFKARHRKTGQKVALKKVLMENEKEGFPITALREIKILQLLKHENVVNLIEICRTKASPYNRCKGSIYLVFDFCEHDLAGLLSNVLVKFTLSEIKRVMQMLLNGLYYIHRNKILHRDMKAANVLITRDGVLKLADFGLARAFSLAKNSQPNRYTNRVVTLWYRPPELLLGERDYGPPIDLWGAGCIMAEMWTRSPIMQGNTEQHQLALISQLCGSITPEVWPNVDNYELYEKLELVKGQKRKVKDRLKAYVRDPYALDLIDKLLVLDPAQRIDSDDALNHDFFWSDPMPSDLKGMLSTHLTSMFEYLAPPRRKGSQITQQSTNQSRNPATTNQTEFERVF
T1 sequence (O60563 whole entry partner): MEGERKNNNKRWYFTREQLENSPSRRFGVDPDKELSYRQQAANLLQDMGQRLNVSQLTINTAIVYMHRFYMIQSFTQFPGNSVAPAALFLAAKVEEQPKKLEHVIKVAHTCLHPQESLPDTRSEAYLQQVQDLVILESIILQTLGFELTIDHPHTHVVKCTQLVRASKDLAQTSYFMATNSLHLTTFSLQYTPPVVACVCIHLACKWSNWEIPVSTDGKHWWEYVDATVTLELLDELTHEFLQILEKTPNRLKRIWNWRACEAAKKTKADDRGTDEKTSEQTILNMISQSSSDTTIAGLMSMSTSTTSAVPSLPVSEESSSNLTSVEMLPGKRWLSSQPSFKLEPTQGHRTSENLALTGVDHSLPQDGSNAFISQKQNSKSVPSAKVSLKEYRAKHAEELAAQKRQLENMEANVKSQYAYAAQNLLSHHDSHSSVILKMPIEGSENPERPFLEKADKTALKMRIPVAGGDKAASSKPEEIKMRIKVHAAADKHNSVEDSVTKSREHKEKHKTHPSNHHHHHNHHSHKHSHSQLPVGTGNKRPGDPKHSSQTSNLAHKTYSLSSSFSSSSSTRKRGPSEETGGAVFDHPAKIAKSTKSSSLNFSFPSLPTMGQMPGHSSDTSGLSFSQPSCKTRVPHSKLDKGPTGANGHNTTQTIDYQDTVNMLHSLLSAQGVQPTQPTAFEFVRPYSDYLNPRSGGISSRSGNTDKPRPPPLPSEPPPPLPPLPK

| Compound | IC50 [1] | EC50 [2] | further results |
| --- | --- | --- | --- |
| Fc1cccc(Cn2ccc3cc(F)c(-c4ccnc5[nH]c(C6CCNCC6)cc45)cc32)c1 [Example 9, 4-[5-fluoro-1-(3-fluorobenzyl)-1H-indol-6-yl]-2-(piperidin-4-yl)-1H-pyrrolo[2,3-b]pyridine] | 50 nM | 100 nM | EC50 [3]: 110 nM |
| CS(=O)(=O)N1CC=C(c2cc3c(-c4ccc5ccn(Cc6cncc(F)c6)c5n4)ccnc3[nH]2)CC1 [Example 55, 1′-[(5-fluoropyridin-3-yl)methyl]-2-[1-(methylsulfonyl)-1,2,3,6-tetrahydropyridin-4-yl]-1H,1′H-4,6′-bipyrrolo[2,3-b]pyridine] | 65 nM | 370 nM | – |
| Fc1cccc(Cn2ccc3ncc(-c4ccnc5[nH]c(C6=CCNCC6)cc45)cc32)c1 [Example 40, 1-(3-fluorobenzyl)-6-[2-(1,2,3,6-tetrahydropyridin-4-yl)-1H-pyrrolo[2,3-b]pyridin-4-yl]-1H-pyrrolo[3,2-b]pyridine] | 17 nM | 53 nM | – |
| CS(=O)(=O)N1CCC(c2cc3c(-c4cnc5ccn(Cc6cncc(F)c6)c5c4)ccnc3[nH]2)CC1 [Example 48, 1-[(5-fluoropyridin-3-yl)methyl]-6-{2-[1-(methylsulfonyl)piperidin-4-yl]-1H-pyrrolo[2,3-b]pyridin-4-yl}-1H-pyrrolo[3,2-b]pyridine] | 35 nM | 540 nM | – |
| CNC(=O)N1CCC(c2cc3c(-c4ccc5ncn(Cc6cncc(F)c6)c5c4)ccnc3[nH]2)CC1 [Example 16, 4-(4-{1-[(5-fluoropyridin-3-yl)methyl]-1H-benzimidazol-6-yl}-1H-pyrrolo[2,3-b]pyridin-2-yl)-N-methylpiperidine-1-carboxamide] | 94 nM | 180 nM | – |
| CS(=O)(=O)N1CC=C(c2cc3c(-c4ccc5nnn(CC6CCOCC6)c5c4)ccnc3[nH]2)CC1 [Example 39, 6-{2-[1-(methylsulfonyl)-1,2,3,6-tetrahydropyridin-4-yl]-1H-pyrrolo[2,3-b]pyridin-4-yl}-1-(tetrahydro-2H-pyran-4-ylmethyl)-1H-benzotriazole] | 74 nM | 200 nM | – |
| OCC(O)CN1CCC(c2cc3c(-c4cc5c(cc4F)ncn5CC4CCOCC4)ccnc3[nH]2)CC1 (stereo not drawn) [Example 19, 3-(4-{4-[5-fluoro-1-(tetrahydro-2H-pyran-4-ylmethyl)-1H-benzimidazol-6-yl}-1H-pyrrolo[2,3-b]pyridin-2-yl]piperidin-1-yl)propane-1,2-diol] | 97 nM | 1110 nM | – |
| N#Cc1cn(CC2CCOCC2)c2cc(-c3ccnc4[nH]c(C5CCNCC5)cc34)cnc12 [Example 28, 6-[2-(piperidin-4-yl)-1H-pyrrolo[2,3-b]pyridin-4-yl]-1-(tetrahydro-2H-pyran-4-ylmethyl)-1H-pyrrolo[3,2-b]pyridine-3-carbonitrile] | 180 nM | > 10000 nM | – |
| N#Cc1cn(Cc2ccccc2)c2cc(-c3ncnc4[nH]c(C5=CCNCC5)cc34)ccc12 [Example 22, 1-benzyl-6-[6-(1,2,3,6-tetrahydropyridin-4-yl)-7H-pyrrolo[2,3-d]pyrimidin-4-yl]-1H-indole-3-carbonitrile] | 16 nM | 100 nM | – |
| C1=C(c2cc3c(-c4ccc5nnn(CC6CCOCC6)c5c4)ccnc3[nH]2)CCNC1 [Example 36, 1-(tetrahydro-2H-pyran-4-ylmethyl)-6-[2-(1,2,3,6-tetrahydropyridin-4-yl)-1H-pyrrolo[2,3-b]pyridin-4-yl]-1H-benzotriazole] | 59 nM | 450 nM | – |
| CS(=O)(=O)N1CCC(c2cc3c(-c4cc5c(cc4F)ncn5CC4CCOCC4)ccnc3[nH]2)CC1 [Example 23, 5-fluoro-6-{2-[1-(methylsulfonyl)piperidin-4-yl]-1H-pyrrolo[2,3-b]pyridin-4-yl}-1-(tetrahydro-2H-pyran-4-ylmethyl)-1H-benzimidazole] | 55 nM | 550 nM | – |
| c1cc(-c2ccc3ncn(CC4CCOCC4)c3c2)c2cc(C3CCNCC3)[nH]c2n1 [Example 5, 6-{2-(piperidin-4-yl)-1H-pyrrolo[2,3-b]pyridin-4-yl}-1-(tetrahydro-2H-pyran-4-ylmethyl)-1H-benzimidazole] | 40 nM | 180 nM | % TGD (tumor growth delay) ([4]; 7.50 mg/kg): 20%; % TGI ([4]; 7.50 mg/kg): 39%; % removed from study ([4]; 7.50 mg/kg): 22%; % TGD (tumor growth delay) ([4]; 15 mg/kg): 31** %; % TGI ([4]; 15 mg/kg): 58** %; % removed from study ([4]; 15 mg/kg): 11% |

The next lines start with results.

| IC50 [1] | EC50 [2] | Compound | further results |
| --- | --- | --- | --- |
| 9 nM | 44 nM | Fc1cccc(Cn2cnc3ccc(-c4ccnc5[nH]c(C6CCNCC6)cc45)cc32)c1 [Example 2, 1-(3-fluorobenzyl)-6-[2-(piperidin-4-yl)-1H-pyrrolo[2,3-b]pyridin-4-yl]-1H-benzimidazole] | EC50 [3]: 12 nM |
| 28 nM | 87 nM | Fc1cccc(Cn2ccc3ncc(-c4ccnc5[nH]c(C6CCNCC6)cc45)cc32)c1 [Example 29, 1-(3-fluorobenzyl)-6-[2-(piperidin-4-yl)-1H-pyrrolo[2,3-b]pyridin-4-yl]-1H-pyrrolo[3,2-b]pyridine] | EC50 [3]: 33 nM |
| 30 nM | 120 nM | CNC(=O)N1CCC(c2cc3c(-c4cnc5ccn(Cc6cccc(F)c6)c5c4)ccnc3[nH]2)CC1 [Example 45, 4-{4-[1-(3-fluorobenzyl)-1H-pyrrolo[3,2-b]pyridin-6-yl]-1H-pyrrolo[2,3-b]pyridin-2-yl}-N-methylpiperidine-1-carboxamide] | – |
| 26 nM | 170 nM | Fc1cncc(Cn2ccc3ncc(-c4ccnc5[nH]c(C6CCNCC6)cc45)cc32)c1 [Example 37, 1-[(5-fluoropyridin-3-yl)methyl]-6-[2-(piperidin-4-yl)-1H-pyrrolo[2,3-b]pyridin-4-yl]-1H-pyrrolo[3,2-b]pyridine] | – |
| 24 nM | 250 nM | Fc1cncc(Cn2ccc3ccc(-c4ccnc5[nH]c(C6CCNCC6)cc45)nc32)c1 [Example 49, 1′-[(5-fluoropyridin-3-yl)methyl]-2-(piperidin-4-yl)-1H,1′H-4,6′-bipyrrolo[2,3-b]pyridine] | – |
| 17 nM | 130 nM | CS(=O)(=O)N1CCC(c2cc3c(-c4cnc5ccn(Cc6cccc(F)c6)c5c4)ccnc3[nH]2)CC1 [Example 34, 1-(3-fluorobenzyl)-6-{2-[1-(methylsulfonyl)piperidin-4-yl]-1H-pyrrolo[2,3-b]pyridin-4-yl}-1H-pyrrolo[3,2-b]pyridine] | – |
| 27 nM | 210 nM | CNC(=O)N1CC=C(c2cc3c(-c4ccc5ccn(Cc6cncc(F)c6)c5n4)ccnc3[nH]2)CC1 [Example 54, 4-{1′-[(5-fluoropyridin-3-yl)methyl]-1H,1′H-4,6′-bipyrrolo[2,3-b]pyridin-2-yl}-N-methyl-3,6-dihydropyridine-1(2 H)-carboxamide] | – |
| 18 nM | 1100 nM | Fc1cccc(CCn2nnc3ccc(-c4ccnc5[nH]c(C6CCNCC6)c(Cl)c45)cc32)c1 [Example 33, 6-[3-chloro-2-(piperidin-4-yl)-1H-pyrrolo[2,3-b]pyridin-4-yl]-1-[2-(3-fluorophenyl)ethyl]-1H-benzotriazole] | – |
| 26 nM | 150 nM | Fc1cccc(Cn2ccc3ccc(-c4ccnc5[nH]c(C6CCNCC6)cc45)nc32)c1 [Example 43, 1′-(3-fluorobenzyl)-2-(piperidin-4-yl)-1H,1′H-4,6′-bipyrrolo[2,3-b]pyridine] | – |
